Source: patent US5696151A, “Compounds useful for the inhibition of the replication of HIV-1 and HIV-1 mutants” (priority 1995, dated 1997)
Values after ≈ are worked out from the molar mass of the structure shown. Like-named read-outs stand apart in the source and are kept apart here.

How the values were obtained:
[1] = system: HIV-1/181-Cys; experiment: Inhibition of HIV-1 induced syncytium formation in CEM cells, RT mutant 181-Cys; assay type: cell-based; conditions: day 4, averages of 2 to 3 independent experiments; for EC50: Human immunodeficiency virus 1, CCRF-CEM, 96 h, Table 2A, read-out: Antiviral Activity EC50, 181-Cys
Method in brief: (§1)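 Activity against wild-type HIV-1(IIIB) and NNRTI-selected RT mutants was read as suppression of syncytia, examined by microscope 4 days after infection. Infection used roughly 100 CCID50 per CEM suspension (≈300,000 cells/ml) placed onto serial 5-fold compound dilutions.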

[2] = system: HIV-1/103-Asn; experiment: Inhibition of HIV-1 induced syncytium formation in CEM cells, RT mutant 103-Asn; assay type: cell-based; conditions: Human immunodeficiency virus 1, CCRF-CEM, 96 h, day 4, averages of 2 to 3 independent experiments
From the text: (§2) CEM cells were obtained from the American Tissue Cell Culture Collection (Rockville, Md.). HIV-1(IIIB) was originally obtained from the culture supernatant of persistently HIV-1-infected H9 cells and was provided by R. C. Gallo and M. Popovic (National Cancer Institute, National Institutes of Health, Bethesda, Md.). […] 67: 5353-5359 (1993); HIV-1/Lys-138 ("Lys-138") was selected for resistance against TSAO-m^3T as described in Balzarini et al, Virology 192: 246-253 (1993) and Balzarini et al, Proc. Nat. Acad. Sci. USA 90: 6952-6956 (1993); HIV-1/181-Cys ("181-Cys") was selected for resistance against pyridinone L-697,661 as described in Balzarini et al, Virology 192: 246-253 (1993); and HIV-1/188-His ("188-His") was selected for resistance against HEPT as described in Balzarini et al, Mol. Pharmocol. 44: 694-701 (1993). 188-His was then further converted to HIV-1/188-Leu "188-Leu") upon further passage in cell culture in the absence of the HEPT.
(§3) CEM cells were suspended at ≈300,000 cells per ml of culture medium and infected with approximately 100 CCID50 (CCID50 being the 50% cell culture infective dose) of HIV-1(IIIB) or one of the HIV-1 RT mutant strains described above. Then 100 μl of the infected cell suspensions was added to 200 μl microtiter plate wells containing 100 μl of appropriate serial (5-fold) dilutions of the test compounds. The inhibitory effect of the test compounds on HIV-1 induced syncytium formation in CEM cells was examined microscopically on day 4 post infection.

[3] = system: HIV-1(IIIB); experiment: Inhibition of HIV-1 induced syncytium formation in CEM cells, wild type; assay type: cell-based; conditions: WT = HIV-1(IIIB), day 4, averages of 2 to 3 independent experiments; for EC50: Human immunodeficiency virus 1, IIIB, CCRF-CEM, 96 h, Table 2A, read-out: Antiviral Activity EC50, WT
Method in brief: as §1

[4] = system: HIV-1/100-Ile; experiment: Inhibition of HIV-1 induced syncytium formation in CEM cells, RT mutant 100-Ile; assay type: cell-based; conditions: day 4, averages of 2 to 3 independent experiments; for EC50: Human immunodeficiency virus 1, CCRF-CEM, 96 h, Table 2A, read-out: Antiviral Activity EC50, 100-Ile
Method in brief: as §1

[5] = system: HIV-1/188-Leu; experiment: Inhibition of HIV-1 induced syncytium formation in CEM cells, RT mutant 188-Leu; assay type: cell-based; conditions: Human immunodeficiency virus 1, CCRF-CEM, 96 h, day 4, averages of 2 to 3 independent experiments
From the text: as §2, §3

[6] = system: CEM cells; experiment: in vitro; assay type: cell-based; conditions: Table 2B; CEM cell proliferation; averages of 2 to 3 independent experiments
Method in brief: (§4)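 Value is the 50% cytostatic concentration, the compound concentration that inhibits CEM cell proliferation by 50%. HIV-1(IIIB) and NNRTI-resistant variants selected in culture (Lys-138, 181-Cys, 188-His, 188-Leu) were used alongside.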

[7] = system: HIV-1/106-Ala; experiment: Inhibition of HIV-1 induced syncytium formation in CEM cells, RT mutant 106-Ala; assay type: cell-based; conditions: day 4, averages of 2 to 3 independent experiments; for EC50: Human immunodeficiency virus 1, CCRF-CEM, 96 h, Table 2A, read-out: Antiviral Activity EC50, 106-Ala
Method in brief: as §1

[8] = system: HIV-1/Lys-138; experiment: Inhibition of HIV-1 induced syncytium formation in CEM cells, RT mutant 138-Lys; assay type: cell-based; conditions: day 4, averages of 2 to 3 independent experiments; for EC50: Human immunodeficiency virus 1, CCRF-CEM, 96 h, Table 2A, read-out: Antiviral Activity EC50, 138-Lys
Method in brief: as §1

[9] = in vitro; assay type: cell-based; conditions: human, cem cells, CC50 (50% cytostatic concentration), Table 2A; CEM cell proliferation; averages of 2 to 3 independent experiments
Method in brief: as §4

[10] = system: HIV-1 RT mutant strains; experiment: Antiviral activity in CEM cells against the HIV-1 RT mutant strains; assay type: cell-based; conditions: Human immunodeficiency virus 1, CCRF-CEM, read-out: EC50 values against the HIV-1 RT mutant strains
From the text: as §2
as §3, with “The inhibitory effect of the test compounds on HIV-1 induced syncytium formation in CEM cells was examined microscopically on day 4 post infection.” left out

[11] = system: HIV-1(IIIB) and the HIV-1 RT mutants; experiment: Antiviral activity in CEM cells against wild type and RT mutants; assay type: cell-based
From the text: as §2
as §3, with “The inhibitory effect of the test compounds on HIV-1 induced syncytium formation in CEM cells was examined microscopically on day 4 post infection.” left out

[12] = system: HIV-1 strains containing the 100 Leu →Ile mutation in their RT; conditions: background, Balzarini I and II; cited from earlier work
[13] = system: 181 Tyr →Cys mutation in the RT of HIV-1 strains; conditions: background, Balzarini I and II; cited from earlier work
[14] = Table 2A, read-out: Antiviral Activity EC50, 103-Asn
[15] = Table 2A, read-out: Antiviral Activity EC50, 188-Leu

Question: Which “Antiviral Activity of Comparative Compounds EC50, 181-Cys” value ([1]; Table 2B) does the source give for `Cc1sccc1C(=S)Nc1ccc(Cl)c(C(=O)OC2CCCCC2)c1` [Compound 9] here?
Answer: 32 ng/mL

Question: What about the EC50 ([2]; Table 2B, read-out: Antiviral Activity of Comparative Compounds EC50, 103-Asn) of the same compound?
Answer: 130 ng/mL (≈ 0.33 µM)

Question: And the “Antiviral Activity of Comparative Compounds EC50, WT” value ([3]; Table 2B)?
Answer: 3.2 ng/mL

Question: And the “Antiviral Activity of Comparative Compounds EC50, 100-Ile” value ([4]; Table 2B)?
Answer: 57 ng/mL

Question: And the EC50 ([5]; Table 2B, read-out: Antiviral Activity of Comparative Compounds EC50, 188-Leu)?
Answer: ≥ 2000 ng/mL

Question: And the “CC50 (50% cytostatic concentration)” value [6]?
Answer: 6000 ng/mL (≈ 15.2 µM)

Question: And the “Antiviral Activity of Comparative Compounds EC50, 106-Ala” value ([7]; Table 2B)?
Answer: 30 ng/mL

Question: And the “Antiviral Activity of Comparative Compounds EC50, 138-Lys” value ([8]; Table 2B)?
Answer: 20 ng/mL

Question: With `CC(C)=CCOc1cc(NC(=S)c2ccoc2C)ccc1Cl` [Compound IA, N-[4-chloro-3-(3-methyl-2-butenyloxy)phenyl]-2-methyl-3-furancarbothioamide] as the compound, how does the EC50 [1] read?
Answer: 11 ng/mL (≈ 0.0328 µM)

Question: What about the EC50 [2, 14] of the same compound?
Answer: 6 ng/mL (≈ 0.0179 µM)

Question: And the EC50 [3]?
Answer: 3 ng/mL (≈ 0.00893 µM)

Question: And the EC50 [4]?
Answer: 3 ng/mL (≈ 0.00893 µM)

Question: What about the EC50 [5, 15] of the same compound?
Answer: 500 ng/mL (≈ 1.49 µM)

Question: And the CC50 [9]?
Answer: > 100000 ng/mL

Question: What about the EC50 [10] of the same compound?
Answer: 3 to 11 ng/mL (≈ 0.00893 to 0.0328 µM)

Question: What about the EC50 [7] of the same compound?
Answer: 5 ng/mL (≈ 0.0149 µM)

Question: What about the EC50 [8] of the same compound?
Answer: 5 ng/mL (≈ 0.0149 µM)

Question: What about the “EC50 values against HIV-1(IIIB) and the HIV-1 RT mutants (in words)” value [11] of the same compound?
Answer: extremely low, and virtually similar EC50 values

Question: With `CC(C)=CCOc1cc(NC(=S)c2ccsc2C)ccc1Cl` [Compound IB, N-[4-chloro-3-(3-methyl-2-butenyloxy)-phenyl]-2-methyl-3thiophenecarbothioamide] as the compound, how does the EC50 [1] read?
Answer: 5 ng/mL (≈ 0.0142 µM)

Question: And the EC50 [2, 14]?
Answer: 4 ng/mL (≈ 0.0114 µM)

Question: And the EC50 [3]?
Answer: 3 ng/mL (≈ 0.00852 µM)

Question: And the EC50 [4]?
Answer: 4 ng/mL (≈ 0.0114 µM)

Question: And the EC50 [5, 15]?
Answer: 600 ng/mL (≈ 1.7 µM)

Question: What about the CC50 [9] of the same compound?
Answer: 5800 ng/mL (≈ 16.5 µM)

Question: And the EC50 [10]?
Answer: 3 to 11 ng/mL (≈ 0.00852 to 0.0313 µM)

Question: And the EC50 [7]?
Answer: 5 ng/mL (≈ 0.0142 µM)

Question: And the EC50 [8]?
Answer: 5 ng/mL (≈ 0.0142 µM)

Question: And the “EC50 values against HIV-1(IIIB) and the HIV-1 RT mutants (in words)” value [11]?
Answer: extremely low, and virtually similar EC50 values

Question: With `CC(C)=CCN1Cc2cccc3[nH]c(=S)n(c23)C[C@@H]1C` [Compound R82150] as the compound, how does the “resistance of 100 Leu →Ile RT mutant strains” value [12] read?
Answer: resistant

Question: With `CC(C)=CCN1Cc2cc(Cl)cc3[nH]c(=S)n(c23)C[C@@H]1C` [TIBO R82913] as the compound, how does the “resistance of 100 Leu →Ile RT mutant strains” value [12] read?
Answer: resistant

Question: With `Cc1ccnc2c1NC(=O)c1cccnc1N2C1CC1` [nevirapine] as the compound, how does the “resistance of 181 Tyr →Cys RT mutant viruses” value [13] read?
Answer: resistant
